According to US20230381157A1, “RIFABUTIN FOR THE TREATMENT OF ACINETOBACTER BAUMANNII” (University of Southern California, priority 2018, published 2023):

Tested on: A. baumannii AB5075 transposon disruption mutants
Test: microbe, parasite or virus in culture
Assay type: cell-based, Acinetobacter baumannii

Structure (SMILES): CO[C@H]1/C=C/O[C@@]2(C)Oc3c(C)c(O)c4c(c3C2=O)C2=NC3(CCN(CC(C)C)CC3)NC2=C(NC(=O)/C(C)=C\C=C\[C@H](C)[C@H](O)[C@@H](C)[C@@H](O)[C@@H](C)[C@H](OC(C)=O)[C@@H]1C)C4=O [rifabutin]
- Rifabutin MIC (AB00188, disrupted gene aroP, RPMI, listed as RBT): 0.05 µg/mL
- Rifabutin MIC (AB00190, disrupted gene aroP, RPMI, listed as RBT): 0.05 µg/mL
- Rifabutin MIC (AB00215, disrupted gene tryP, RPMI, listed as RBT): 0.05 µg/mL
- Rifabutin MIC (AB00216, disrupted gene tryP, RPMI, listed as RBT): 0.05 µg/mL
- Rifabutin MIC (AB01188, ABUW_0449 (hypothetical protein), MHII): 1.56 µg/mL
- Rifabutin MIC (AB01188, ABUW_0449 (hypothetical protein), RPMI): 0.05 µg/mL
- Rifabutin MIC (AB01192, ABUW_0449, MHII): 1.56 µg/mL
- Rifabutin MIC (AB01192, ABUW_0449, RPMI): 0.05 µg/mL
- Rifabutin MIC (AB01494, ABUW_0559 (putative phage-related membrane protein), MHII): 3.13 µg/mL
- Rifabutin MIC (AB01494, ABUW_0559 (putative phage-related membrane protein), RPMI): 0.05 µg/mL
- Rifabutin MIC (AB01495, ABUW_0559, MHII): 6.25 µg/mL
- Rifabutin MIC (AB01495, ABUW_0559, RPMI): 0.05 µg/mL
- Rifabutin MIC (AB02034, ABUW_0745 (hypothetical protein), MHII): 0.78 µg/mL
- Rifabutin MIC (AB02034, ABUW_0745 (hypothetical protein), RPMI): 0.05 µg/mL
- Rifabutin MIC (AB02035, ABUW_0745, MHII): 1.56 µg/mL
- Rifabutin MIC (AB02035, ABUW_0745, RPMI): 0.05 µg/mL
- Rifabutin MIC (AB02204, disrupted gene aroP, RPMI, listed as RBT): 0.05 µg/mL
- Rifabutin MIC (AB02205, disrupted gene aroP, RPMI, listed as RBT): 0.05 µg/mL
- Rifabutin MIC (AB02891, ABUW_1069 (NADH dehydrogenase), MHII): 3.13 µg/mL
- Rifabutin MIC (AB02891, ABUW_1069 (NADH dehydrogenase), RPMI): 0.05 µg/mL
- Rifabutin MIC (AB02892, ABUW_1069, MHII): 6.25 µg/mL
- Rifabutin MIC (AB02892, ABUW_1069, RPMI): 0.05 µg/mL
- Rifabutin MIC (AB03015, disrupted gene aroP, RPMI, listed as RBT): 0.05 µg/mL
- Rifabutin MIC (AB03608, disrupted gene hisJ, RPMI, listed as RBT): 0.05 µg/mL
- Rifabutin MIC (AB03612, disrupted gene hisM, RPMI, listed as RBT): 0.05 µg/mL
- Rifabutin MIC (AB03616, disrupted gene hisM, RPMI, listed as RBT): 0.05 µg/mL
- Rifabutin MIC (AB03618, disrupted gene hisM, RPMI, listed as RBT): 0.05 µg/mL
- Rifabutin MIC (AB04576, ABUW_1741 (outer membrane protein assembly factor BamA), MHII): 1.56 µg/mL
- Rifabutin MIC (AB04576, ABUW_1741 (outer membrane protein assembly factor BamA), RPMI): 0.05 µg/mL
- Rifabutin MIC (AB04593, ABUW_1750 (HAD-superfamiy hydrolase), MHII): 3.13 µg/mL
- Rifabutin MIC (AB04593, ABUW_1750 (HAD-superfamiy hydrolase), RPMI): 0.05 µg/mL
- Rifabutin MIC (AB04594, ABUW_1750, MHII): 3.13 µg/mL
- Rifabutin MIC (AB04594, ABUW_1750, RPMI): 0.05 µg/mL
- Rifabutin MIC (AB04749, ABUW_1817 (putative peroxidase(alpha/beta hydrolase)), MHII): 3.13 µg/mL
- Rifabutin MIC (AB04749, ABUW_1817 (putative peroxidase(alpha/beta hydrolase)), RPMI): 0.05 µg/mL
- Rifabutin MIC (AB04750, ABUW_1817, MHII): 3.13 µg/mL
- Rifabutin MIC (AB04750, ABUW_1817, RPMI): 0.05 µg/mL
- Rifabutin MIC (AB5075-UW (parent strain), RPMI, listed as RBT): 0.05 µg/mL
- Rifabutin MIC (AB05089, ABUW_1933 (NADP-dependent fatty aldehyde dehydrogenase), MHII): 1.56 µg/mL
- Rifabutin MIC (AB05089, ABUW_1933 (NADP-dependent fatty aldehyde dehydrogenase), RPMI): 0.05 µg/mL
- Rifabutin MIC (AB05348, ABUW_2057 (alcohol dehydrogenase), MHII): 1.56 µg/mL
- Rifabutin MIC (AB05348, ABUW_2057 (alcohol dehydrogenase), RPMI): 0.05 µg/mL
- Rifabutin MIC (AB05361, ABUW_2062 (phospholipase D family protein), MHII): 1.56 µg/mL
- Rifabutin MIC (AB05361, ABUW_2062 (phospholipase D family protein), RPMI): 0.05 µg/mL
- Rifabutin MIC (AB05362, ABUW_2062, MHII): 1.56 µg/mL
- Rifabutin MIC (AB05362, ABUW_2062, RPMI): 0.05 µg/mL
- Rifabutin MIC (AB05479, ABUW_2100 (LysR family transcriptional regulator), MHII): 3.13 µg/mL
- Rifabutin MIC (AB05479, ABUW_2100 (LysR family transcriptional regulator), RPMI): 0.05 µg/mL
- Rifabutin MIC (AB05480, ABUW_2100, MHII): 1.56 µg/mL
- Rifabutin MIC (AB05480, ABUW_2100, RPMI): 0.05 µg/mL
- Rifabutin MIC (AB05672, ABUW_2165, MHII): 6.25 µg/mL
- Rifabutin MIC (AB05672, ABUW_2165, RPMI): 3.13 µg/mL
- Rifabutin MIC (AB05673, ABUW_2165, MHII): 3.13 µg/mL
- Rifabutin MIC (AB05673, ABUW_2165, RPMI): 3.13 µg/mL
- Rifabutin MIC (AB05674, ABUW_2165, MHII): 3.13 µg/mL
- Rifabutin MIC (AB05674, ABUW_2165, RPMI): 1.56 µg/mL
- Rifabutin MIC (AB05756, ABUW_2194 (acyl-CoA dehydrogenase), MHII): 1.56 µg/mL
- Rifabutin MIC (AB05756, ABUW_2194 (acyl-CoA dehydrogenase), RPMI): 0.05 µg/mL
- Rifabutin MIC (AB05757, ABUW_2194, MHII): 6.25 µg/mL
- Rifabutin MIC (AB05757, ABUW_2194, RPMI): 0.05 µg/mL
- Rifabutin MIC (AB05837, ABUW_2228 (TonB-dependent receptor), MHII): 3.13 µg/mL
- Rifabutin MIC (AB05837, ABUW_2228 (TonB-dependent receptor), RPMI): 0.05 µg/mL
- Rifabutin MIC (AB05838, ABUW_2228, MHII): 3.13 µg/mL
- Rifabutin MIC (AB05838, ABUW_2228, RPMI): 0.05 µg/mL
- Rifabutin MIC (AB06047, ABUW_2307 (biotin synthase), MHII): 0.05 µg/mL
- Rifabutin MIC (AB06047, ABUW_2307 (biotin synthase), RPMI): 0.05 µg/mL
- Rifabutin MIC (AB06049, ABUW_2307, MHII): 0.05 µg/mL
- Rifabutin MIC (AB06049, ABUW_2307, RPMI): 0.05 µg/mL
- Rifabutin MIC (AB06076, ABUW_2318 (cytosine permease), RPMI): 0.05 µg/mL
- Rifabutin MIC (AB06077, ABUW_2318, MHII): 1.56 µg/mL
- Rifabutin MIC (AB06077, ABUW_2318, RPMI): 0.05 µg/mL
- Rifabutin MIC (AB06089, ABUW_2322 (integrase), MHII): 3.13 µg/mL
- Rifabutin MIC (AB06089, ABUW_2322 (integrase), RPMI): 0.05 µg/mL
- Rifabutin MIC (AB06091, ABUW_2322, MHII): 6.25 µg/mL
- Rifabutin MIC (AB06091, ABUW_2322, RPMI): 0.05 µg/mL
- Rifabutin MIC (AB06105, disrupted gene aroP, RPMI, listed as RBT): 0.05 µg/mL
- Rifabutin MIC (AB06383, disrupted gene hisJ, RPMI, listed as RBT): 0.05 µg/mL
- Rifabutin MIC (AB06386, disrupted gene hisP, RPMI, listed as RBT): 0.05 µg/mL
- Rifabutin MIC (AB06392, disrupted gene hisP, RPMI, listed as RBT): 0.05 µg/mL
- Rifabutin MIC (AB06694, ABUW_2539 (IS4 family transposase), MHII): 3.13 µg/mL
- Rifabutin MIC (AB06694, ABUW_2539 (IS4 family transposase), RPMI): 0.05 µg/mL
